By EC50 is commonly meant the concentration needed to bring the measured effect to its halfway point.

The assay concerns HBV viral production from HepAD38 cells. Nature of the assay: Activity of test compounds on viral production from HepAD38 cells (viral load by qPCR of HBV core sequence in supernatant). It counts as cell-based. The conditions noted are these: Hepatitis B virus, 120 h, 5 days incubation, HBV DNA in supernatant by qPCR, top concentration 10 μM, read-out: Viral Load EC50 Activity range. An outline of the steps:
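HepAD38 cells, 50,000/well in tetracycline-free 2% FBS medium, treated 5 days at 37° C. with compound from 10 μM top concentration. HBV DNA in supernatant quantified by TaqMan qPCR of core sequence against DNA standards, relative to DMSO wells; CellTiter-Glo viability read in parallel. EC50/CC50 from four-parameter logistic fit.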
On the technique in general: Real-time PCR tracks product formation cycle by cycle.
Take `O=C(Nc1ccc(F)c(Cl)c1)C1CC(c2nccs2)NS(=O)(=O)N1CCN1CCOCC1` (racemic) [HBV-CSU-082, Cis-N-(3-Chloro-4-fluorophenyl)-2-(2-morpholinoethyl)-5-(thiazol-2-yl)-1,2,6-thiadiazinane-3-carboxamide 1,1-dioxide]: the EC50 was over 5 µM.
For `CN1C(C(=O)Nc2ccc(F)c(Cl)c2)CC(c2cccs2)N(C)S1(=O)=O` (stereo not drawn) [HBV-CSU-023, Cis-N-(3-Chloro-4-fluorophenyl)-2,6-dimethyl-5-(thiophen-2-yl)-1,2,6-thiadiazinane-3-carboxamide 1,1-dioxide], the EC50 lay within 1 to 5 µM.
For the molecule `CN1[C@@H](C(=O)Nc2ccc(F)c(Cl)c2)C[C@@H](c2cc(-c3ccccc3)cs2)NS1(=O)=O` [HBV-CSU-148-ISO-II, Cis-N-(3-chloro-4-fluorophenyl)-2-methyl-5-(4-phenylthiophen-2-yl)-1,2,6-thiadiazinane-3-carboxamide 1,1-dioxide], the EC50 was in the range of 1 to 5 µM.
Next, `CN1[C@H](C(=O)Nc2ccc(F)c(Cl)c2)C[C@H](c2cc(-c3ccc(F)cn3)cs2)NS1(=O)=O` (stereo in doubt) [HBV-CSU-243-ISO-II, Cis-N-(3-chloro-4-fluorophenyl)-5-(4-(5-fluoropyridin-2-yl)thiophen-2-yl)-2-methyl-1,2,6-thiadiazinane-3-carboxamide 1,1-dioxide]: under 1 µM; `CN1[C@@H](C(=O)Nc2ccc(F)c(Cl)c2)C[C@@H](c2ccc(-c3ncn(C)n3)s2)NS1(=O)=O` [HBV-CSU-322-ISO-II, Cis-N-(3-Chloro-4-fluorophenyl)-2-methyl-5-(5-(1-methyl-1H-1,2,4-triazol-3-yl)thiophen-2-yl)-1,2,6-thiadiazinane-3-carboxamide 1,1-dioxide]: over 5 µM.
For `CN1[C@H](C(=O)Nc2ccc(F)c(Br)c2)C[C@H](c2cccs2)NS1(=O)=O` [HBV-CSU-016-ISO-I, Cis-N-(3-Bromo-4-fluorophenyl)-2-methyl-5-(thiophen-2-yl)-1,2,6-thiadiazinane-3-carboxamide 1,1-dioxide], the EC50 is under 1 µM.
Take `CN1[C@H](C(=O)Nc2ccc(F)c(Cl)c2)C[C@H](c2cc(-c3cncs3)cs2)NS1(=O)=O` [HBV-CSU-286-ISO-I, Cis-N-(3-Chloro-4-fluorophenyl)-2-methyl-5-(4-(thiazol-5-yl)thiophen-2-yl)-1,2,6-thiadiazinane-3-carboxamide 1,1-dioxide]: the concentration for a half-maximal effect (EC50) was under 1 µM.
In the case of `O=C(Nc1ccc(F)c(Cl)c1)[C@@H]1C[C@H](c2nccs2)NS(=O)(=O)N1CCOCc1ccccc1` [HBV-CSU-095-ISO-II, Cis-2-(2-(benzyloxy)ethyl)-N-(3-chloro-4-fluorophenyl)-5-(thiazol-2-yl)-1,2,6-thiadiazinane-3-carboxamide 1,1-dioxide], the EC50 was in the range of 1 to 5 µM.
For `CN1[C@@H](C(=O)Nc2ccc(F)c(Cl)c2)C[C@@H](c2ccc(-c3ccnn3C)s2)NS1(=O)=O` [HBV-CSU-271-ISO-II, Cis-N-(3-chloro-4-fluorophenyl)-2-methyl-5-(5-(1-methyl-1H-pyrazol-5-yl)thiophen-2-yl)-1,2,6-thiadiazinane-3-carboxamide 1,1-dioxide], the EC50 was 1 to 5 µM.
As for `CN1[C@@H](C(=O)Nc2ccc(F)c(Cl)c2)C[C@@H](C2CCCC2)NS1(=O)=O` [HBV-CSU-222-ISO-II, Cis-N-(3-chloro-4-fluorophenyl)-5-cyclopentyl-2-methyl-1,2,6-thiadiazinane-3-carboxamide 1,1-dioxide], the EC50 was 1 to 5 µM.
Take `CN1[C@@H](C(=O)Nc2ccc(F)c(Cl)c2)C[C@@H](c2ncc(Br)s2)NS1(=O)=O` [HBV-CSU-122-ISO-II, Cis-5-(5-bromothiazol-2-yl)-N-(3-chloro-4-fluorophenyl)-2-methyl-1,2,6-thiadiazinane-3-carboxamide 1,1-dioxide]: the EC50 was 1 to 5 µM.
As to `CN1[C@@H](C(=O)Nc2ccc(F)c(Cl)c2)C[C@@H](c2cc(-c3cccs3)cs2)NS1(=O)=O` [HBV-CSU-170-ISO-II], the EC50 is under 1 µM.
Turning to `CN1[C@@H](C(=O)Nc2ccc(F)c(Cl)c2)C[C@@H](c2ccc(-c3ccc(F)cn3)s2)NS1(=O)=O` [HBV-CSU-242-ISO-II, Cis-N-(3-chloro-4-fluorophenyl)-5-(5-(5-fluoropyridin-2-yl)thiophen-2-yl)-2-methyl-1,2,6-thiadiazinane-3-carboxamide 1,1-dioxide], the EC50 is over 5 µM.
Consider `CN1C(C(=O)Nc2ccc(F)c(Cl)c2)CC(c2ccc(C(F)(F)F)cc2)NS1(=O)=O` (racemic) [HBV-CSU-217, Cis-N-(3-Chloro-4-fluorophenyl)-2-methyl-5-(4-(trifluoromethyl)phenyl)-1,2,6-thiadiazinane-3-carboxamide 1,1-dioxide], for which the EC50 was in the range of 1 to 5 µM.
Next, `COCCN1C(c2cccs2)CC(C(=O)Nc2ccc(F)c(Cl)c2)N(C)S1(=O)=O` (stereo not drawn) [HBV-CSU-064, Cis-N-(3-Chloro-4-fluorophenyl)-6-(2-methoxyethyl)-2-methyl-5-(thiophen-2-yl)-1,2,6-thiadiazinane-3-carboxamide 1,1-dioxide]: over 5 µM; `O=C(Nc1ccc(F)c(Cl)c1)[C@H]1C[C@@H](c2nccs2)NS(=O)(=O)N1CCOCc1ccccc1` (relative stereo) [HBV-CSU-095-ISO-I, Cis-2-(2-(benzyloxy)ethyl)-N-(3-chloro-4-fluorophenyl)-5-(thiazol-2-yl)-1,2,6-thiadiazinane-3-carboxamide 1,1-dioxide]: 1 to 5 µM.
On to `[2H]C1[C@]([2H])(C(=O)Nc2ccc(F)c(Cl)c2)N(C([2H])([2H])[2H])S(=O)(=O)N[C@]1([2H])c1ncc(-c2cn(C([2H])([2H])[2H])cn2)s1` (stereo in doubt) [HBV-CSU-339-ISO-II, Cis-N-(3-Chloro-4-fluorophenyl)-2-(methyl-d3)-5-(5-(1-(methyl-d3)-1H-imidazol-4-yl)thiazol-2-yl)-1,2,6-thiadiazinane-3,4,5-d3-3-carboxamide 1,1-dioxide], for which the concentration giving a half-maximal response (EC50) is 1 to 5 µM.
As for `CN1C(C(=O)Nc2ccc(F)c(Cl)c2)CC(c2ccc(OC(F)(F)F)cc2)NS1(=O)=O` (racemic) [HBV-CSU-232, Cis-N-(3-Chloro-4-fluorophenyl)-2-methyl-5-(4-(trifluoromethoxy)phenyl)-1,2,6-thiadiazinane-3-carboxamide 1,1-dioxide], the EC50 is under 1 µM.
For the molecule `CN1C(C(=O)Nc2ccc(F)c(Cl)c2)CC(c2ccc3c(c2)ncn3C)NS1(=O)=O` (racemic) [HBV-CSU-360, Cis-N-(3-chloro-4-fluorophenyl)-2-methyl-5-(1-methyl-1H-benzo[d]imidazol-5-yl)-1,2,6-thiadiazinane-3-carboxamide 1,1-dioxide], the EC50 is under 1 µM.
The figure for `CN1[C@H](C(=O)Nc2ccc(F)c(Cl)c2)C[C@H](c2ncc(-c3ccccc3)s2)NS1(=O)=O` is under 1 µM; for `Cc1ncc([C@@H]2C[C@H](C(=O)Nc3ccc(F)c(Cl)c3)N(C)S(=O)(=O)N2)s1` [HBV-CSU-224-ISO-II, Cis-N-(3-Chloro-4-fluorophenyl)-2-methyl-5-(2-methylthiazol-5-yl)-1,2,6-thiadiazinane-3-carboxamide 1,1-dioxide] it is over 5 µM.
As to `CSCCN1[C@@H](C(=O)Nc2ccc(F)c(Cl)c2)C[C@@H](c2nccs2)NS1(=O)=O` [HBV-CSU-109-ISO-I, Cis-N-(3-Chloro-4-fluorophenyl)-2-(2-(methylthio)ethyl)-5-(thiazol-2-yl)-1,2,6-thiadiazinane-3-carboxamide 1,1-dioxide], the EC50 was over 5 µM.

These data come from patent US11078170B2 (Assembly Biosciences, Inc., priority 2017, dated 2021).
